The target in the experiment is T1, EcoRI (Escherichia coli, UniProt P00642).
T1 construct: The first M is removed after translation in this protein; purchased New England Biolabs
Briefly: Peptide inhibitor assay (PIA): EcoRI digestion of pCRII-TOPO-OR23 plasmid, fluorescence intensity of the excised OR23 band on agarose gel. The class given is biochemical. The settings on record: for level of inhibitory effect on EcoRI (in words) / inhibitory effect compared with the original peptide (in words) / significance of inhibition of EcoRI activity versus no peptide / relative fluorescence intensity of excised OR23 fragment: 3 h; for level of inhibitory effect on EcoRI (in words): EcoRI:peptide 1:500, relative fluorescence intensity; for level of inhibitory effect on EcoRI (in words) / inhibitory effect compared with the original peptide (in words) / significance of inhibition of EcoRI activity versus no peptide / inhibitory effect, fluorescence intensity versus incubation time (in words) / concentration dependence of the inhibitory effect: n = 3; for inhibitory effect compared with the original peptide (in words): EcoRI:peptide 1:500, randomized peptides by Student's t-test versus each endogenous BP; for significance of inhibition of EcoRI activity versus no peptide: EcoRI:peptide 1:500, Dunnett's test versus no peptide; for relative fluorescence intensity of excised OR23 fragment: relative to no peptide, EcoRI:peptide 1:500 molar ratio, 37 °C, 0.015 mM Mg2+, mean of n = 3; for inhibitory effect, fluorescence intensity versus incubation time (in words): time course until 5 h, EcoRI:peptide 1:500, compared with no peptide; for concentration dependence of the inhibitory effect: ×5 to ×500 molar equivalence to EcoRI, fixed time point 3 h. The method, then:
Peptide synthesis was performed by GenScript Japan (Tokyo, Japan). All peptides were confirmed to be more than 75% pure via high-performance liquid chromatography (HPLC) and to have theoretical molecular weights via mass spectrometry (MS). The peptides were dissolved in DMSO (dimethyl sulfoxide) and were prepared at 5.59 × 10^−9 mol/μL (5.59 mM). When 1.0 μL of this peptide mixture was mixed in a tube for the inhibition of EcoRI catalytic activity, the molar ratio of EcoRI to peptide was 1:500. This concentration in molar equivalence was used throughout this study unless otherwise noted.
Purified and concentrated EcoRI (20,000 U/mL, approximately 338 μg/mL, 1.12 × 10^−[…]) was obtained from New England Biolabs (Ipswich, MA, USA). To quantify and visualize the inhibitory effects of the peptides, the enzymatic reaction conditions were set so that at least three hours of incubation were required to completely digest the substrate plasmid DNA with EcoRI. To do so, we used a low Mg^2+ concentration (0.015 mM) in the reaction mixture in contrast to the optimum concentration of Mg^2+ for EcoRI (10 mM).
All master solutions and samples were prepared on ice. A single reaction tube contained the following common ingredients: autoclaved DNase-free RNase-free deionized H2O (12.5 μL) (Nippon Gene), 10× NE Buffer Mg^2+-free (2.0 μL), pCRII-TOPO-OR23 plasmid DNA (2.0 μL of 40 ng/μL solution), MgCl2 (1.5 μL of 0.20 mM solution), and EcoRI (1.0 μL). A master solution containing these ingredients without DMSO or a peptide was first prepared for the number of sample tubes. The master solution was aliquoted into 1.5 mL spin tubes (19.0 μL per tube). Then, 1.0 μL of DMSO or a peptide sample was added, and the mixture was incubated at 37 °C. A negative control with DMSO but without a peptide (“no peptide” control) was run in every assay. When the digestion efficiency was compared, another negative control with autoclaved DNase-free RNase-free H2O without EcoRI was prepared. After the reaction, the samples were quickly cooled on ice for ten minutes and then stored at −80 °C until agarose gel electrophoresis. The above protocol was conducted for all peptides (including BP19.5, BP19.5N, and BP19.5C) used in the present study unless otherwise noted.
To quantify EcoRI activity after incubation of a reaction mixture, digested pCRII-TOPO-OR23 plasmid DNA was examined via agarose gel electrophoresis. We first prepared a 25 mL solution of 1.0% agarose (Nippon Gene) in TAE (Tris-acetate-EDTA) buffer (Promega, Madison, WI, USA) to produce an agarose gel. An ethidium bromide solution (0.5 μL of 10 mg/mL) (Promega) was added before gelation. After incubation with EcoRI, the fluorescence intensity of the band of the excised OR23 fragment was measured via an ImageQuant LAS4000 (GE Healthcare Japan, Tokyo, Japan) with the following conditions: “Exposure Type”: Precision; “Exposure Time”: Manual 1/8 sec; “Sensitivity/Resolution”: Standard; and “Fluorescent Method”: Epi illumination; EtBr; UV (Trans UV) light; 6-5DF50 Filter; and F2.8 Iris.
For statistical analyses, Student’s t-test (unpaired and bi-sided), Dunnett’s test, and Pearson correlation analysis were performed via Microsoft Excel (Office 365) and JSTAT (Yokohama, Japan). The Dunnett’s test was performed for each experimental group that was examined simultaneously in the laboratory, in comparison to the “no peptide” control group that was examined simultaneously. The repeated measure mode of the Dunnett’s test was used on the assumption that there was no interaction between samples.

Entries after “also recorded” stand apart in the source; their conditions may differ.

From publication PMC11755562, “Peptide Inhibitor Assay for Allocating Functionally Important Accessible Sites Throughout a Protein Chain: Restriction Endonuclease EcoRI as a Model Protein System” (BioTech, 2024) come the findings set out here.

T1 sequence (P00642 2-277): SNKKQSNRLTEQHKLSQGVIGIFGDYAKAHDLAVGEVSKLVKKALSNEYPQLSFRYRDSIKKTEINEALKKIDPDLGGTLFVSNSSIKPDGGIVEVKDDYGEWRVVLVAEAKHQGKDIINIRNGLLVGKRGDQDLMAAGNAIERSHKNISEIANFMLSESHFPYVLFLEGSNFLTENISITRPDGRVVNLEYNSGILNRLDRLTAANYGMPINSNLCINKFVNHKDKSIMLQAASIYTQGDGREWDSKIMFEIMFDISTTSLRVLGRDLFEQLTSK

AAGNAI [BP13M]: the “level of inhibitory effect on EcoRI (in words)” value (shortened to “level of inhibitory effect”) is on record as “noninhibitory”.

In the case of AGRKQEVHAVWVEL [BP10R2], the “inhibitory effect compared with the original peptide (in words)” value is reported as “as inhibitory as the original peptides”.

In the case of AVGEVSKLVKKALS [BP4], the “significance of inhibition of EcoRI activity versus no peptide” value was “significantly inhibitory”.

Consider DGLTPFSDVLGI [BP7R2], for which the “inhibitory effect compared with the original peptide (in words)” value is on record as “significantly less inhibitory”.

Regarding DLMAAGNAIERS [BP13], the “level of inhibitory effect” value is on record as “not very inhibitory”.

Regarding EAKHQGKDIIN [BP10.5], the “level of inhibitory effect” value is reported as “not very inhibitory”.

As to EALDIAMGRNSA [BP13R1], the “inhibitory effect compared with the original peptide (in words)” value was “significantly more inhibitory”.

With EGSNFLTENISI [BP16], the “level of inhibitory effect” value is recorded as “highly inhibitory; also recorded: most effective” and the “relative fluorescence intensity of excised OR23 fragment” value (shortened to “relative fluorescence intensity”) is reported as “less than 0.3”.

Consider EIANFM [BP14C], for which the “inhibitory effect compared with the original peptide (in words)” value is listed as “as inhibitory as the original BP14”.

Take EQHKLSQGVIGI [BP2]: the “significance of inhibition of EcoRI activity versus no peptide” value is given as “significantly inhibitory”, the “level of inhibitory effect” value is “highly inhibitory; also recorded: most effective” and the “relative fluorescence intensity” value is “less than 0.3”.

As to EWRVVL [BP10N], the “level of inhibitory effect” value was “noninhibitory”.

As for EWRVVLVAEAKHQG [BP10], the “level of inhibitory effect” value is “not very inhibitory”.

In the case of FRYRDSIKKTEI [BP5.5], the “level of inhibitory effect” value is reported as “least inhibitory; also recorded: noninhibitory”.

Turning to FVSNSSIKPDGG [BP8], the “level of inhibitory effect” value is “noninhibitory” and the “inhibitory effect, fluorescence intensity versus incubation time (in words)” value is “relatively low inhibitory effects”.

Consider GIVEVK [BP9M], for which the “inhibitory effect compared with the original peptide (in words)” value is “more inhibitory than the original”.

Consider GREWDSKIMFEIMF [BP22], for which the “significance of inhibition of EcoRI activity versus no peptide” value is “significantly inhibited EcoRI activity”; the “level of inhibitory effect” value was “especially notable”; the “inhibitory effect, fluorescence intensity versus incubation time (in words)” value is “relatively high inhibitory effects”; the “concentration dependence of the inhibitory effect” value was “concentration dependent”.

With IDPDLG [BP7N], the “level of inhibitory effect” value is given as “noninhibitory”.

Take IKKTEI [BP6N]: the “inhibitory effect compared with the original peptide (in words)” value is recorded as “as inhibitory as the original BP6”.

For the substance IKKTEINEALKKID [BP6], the “significance of inhibition of EcoRI activity versus no peptide” value is reported as “significantly inhibited EcoRI activity” and the “level of inhibitory effect” value is listed as “especially notable”.

KPDGGIVEVKDDYG [BP9]: the “level of inhibitory effect” value is given as “not very inhibitory”.

For the substance KRGDQDLMAAG [BP12.5], the “level of inhibitory effect” value is “not very inhibitory”.

As for LAMRGASIADEN [BP13R2], the “inhibitory effect compared with the original peptide (in words)” value is recorded as “significantly less inhibitory”.

As to LDRLTAANYGM [BP18.5], the “level of inhibitory effect” value is “noninhibitory”.

Regarding LGRDLFEQLTSK [BP25], the “level of inhibitory effect” value is “especially notable; also recorded: most inhibitory; also recorded: most effective” and the “relative fluorescence intensity” value is “less than 0.3”.

LSQGVIGIFGDY [BP2.5]: the “level of inhibitory effect” value is recorded as “notable” and the “relative fluorescence intensity” value was “less than 0.3”.

As to NAIERSHKNIS [BP13.5], the “level of inhibitory effect” value is “not very inhibitory”.

In the case of NEYPQLAFRYRDS [BP5], the “significance of inhibition of EcoRI activity versus no peptide” value is recorded as “significantly inhibitory”, the “level of inhibitory effect” value is “highly inhibitory; also recorded: most effective” and the “relative fluorescence intensity” value is reported as “less than 0.3”.

For the substance NGLLVG [BP12N], the “inhibitory effect compared with the original peptide (in words)” value was “more inhibitory than the original”.

For NISEIA [BP14M], the “level of inhibitory effect” value is recorded as “noninhibitory”.

Regarding NSGILNRLDRLTA [BP18], the “level of inhibitory effect” value is “especially notable; also recorded: most effective” and the “relative fluorescence intensity” value was “less than 0.3”.

As to RNGLLVGKRGDQD [BP12], the “significance of inhibition of EcoRI activity versus no peptide” value is “significantly inhibited EcoRI activity”.

For the substance SHKNIS [BP14N], the “level of inhibitory effect” value is “noninhibitory”.

As to SHKNISEIANFM [BP14], the “significance of inhibition of EcoRI activity versus no peptide” value is “significantly inhibited EcoRI activity”; the “level of inhibitory effect” value was “especially notable; also recorded: moderate inhibitory effect”; the “inhibitory effect, fluorescence intensity versus incubation time (in words)” value is “relatively high inhibitory effects”; the “concentration dependence of the inhibitory effect” value is reported as “concentration dependent”.

For SNKKQSNRLTEQHK [BP1], the “significance of inhibition of EcoRI activity versus no peptide” value was “significantly inhibitory” and the “level of inhibitory effect” value is “reasonably inhibitory”.

As for SSIKPDGGIVE [BP8.5], the “level of inhibitory effect” value is on record as “not very inhibitory”.

With STTSLRVLGRDLFE [BP24], the “level of inhibitory effect” value is on record as “did not work well”.

Consider TRPDGRVVNLEY [BP17], for which the “level of inhibitory effect” value was “not very inhibitory”.

In the case of VEGQELAVKAHRWV [BP10R1], the “inhibitory effect compared with the original peptide (in words)” value was “significantly more inhibitory”.

For the substance VGLILSTGDFDP [BP7R1], the “inhibitory effect compared with the original peptide (in words)” value is on record as “as inhibitory as the original peptides”.

With VIGIFGDYAKAHDL [BP3], the “significance of inhibition of EcoRI activity versus no peptide” value is listed as “significantly inhibitory”, the “level of inhibitory effect” value is listed as “highly inhibitory; also recorded: most effective” and the “relative fluorescence intensity” value is reported as “less than 0.3”.

With VKDDYG [BP9C], the “level of inhibitory effect” value is given as “noninhibitory”.

For VNHKDKSIMLQA [BP20.5], the “level of inhibitory effect” value is recorded as “did not show high inhibition”.

For VVNLEYNSGILN [BP17.5], the “level of inhibitory effect” value was “not very inhibitory”.

In the case of YVLFLE [BP15C], the “level of inhibitory effect” value is given as “most effective”, the “inhibitory effect compared with the original peptide (in words)” value was “more inhibitory than the original BP15” and the “relative fluorescence intensity” value was “less than 0.3”.
